Measured values reported in patent US4039535A, “7-[α-(GUANYL-1-UREIDO)PHENYLACETAMIDO]-3-SUBSTITUTED CEPHALOSPORIN ANTIBIOTICS” (Eli Lilly and Company, priority 1976, dated 1977).
Values after ≈ are worked out from the molar mass of the structure shown. Like-named read-outs stand apart in the source and are kept apart here.

Experiments:
Type in all cases: cell-based
Aerobacter aerogenes = assay: MIC by Gradient Plate Method, in vitro antibiotic activity vs gram-negative microorganisms (Table I); conditions: Klebsiella aerogenes, read-out: Minimum Inhibitory Conc.
Protocol: (§1) In the tables the minimum inhibitory concentrations (MIC) of the listed compound verses the indicated gram-positive and gram-negative microorganisms is presented.
(§2) The MIC values were determined by the Gradient Plate Method which is essentially the method described by Bryson and Szybalski, Science, 116, 45-46 (1952).

Escherichia coli = assay: as above; conditions: read-out: Minimum Inhibitory Conc.
Protocol: as §1, §2

Klebsiella pneumoniae = assay: as above; conditions: read-out: Minimum Inhibitory Conc.
Protocol: as §1, §2

Pseudomonas aeruginosa = assay: as above; conditions: read-out: Minimum Inhibitory Conc.
Protocol: as §1, §2

Salmonella heidelberg = assay: as above; conditions: Salmonella enterica, read-out: Minimum Inhibitory Conc.
Protocol: as §1, §2

Serratia marcescens = assay: as above; conditions: read-out: Minimum Inhibitory Conc.
Protocol: as §1, §2

Shigella sp. = assay: as above; conditions: read-out: Minimum Inhibitory Conc.
Protocol: as §1, §2

[1] = system: penicillin resistant staphylococcus V32; assay: MIC by Gradient Plate Method vs penicillin resistant staphylococcus clinical isolates (Table II); conditions: read-out: Minimum Inhibitory Concentration
Protocol: as §1, §2

[2] = system: penicillin resistant staphylococcus V41; assay: as above; conditions: read-out: Minimum Inhibitory Concentration
Protocol: as §1, §2

[3] = system: penicillin resistant staphylococcus V84; assay: as above; conditions: read-out: Minimum Inhibitory Concentration
Protocol: as §1, §2

[4] = system: penicillin resistant staphylococcus X1.1; assay: as above; conditions: read-out: Minimum Inhibitory Concentration
Protocol: as §1, §2

[5] = system: gram-negative microorganisms; assay: Antibiotic activity against gram-negative microorganisms, summary of Table I; conditions: in words; MIC values in Table I; vs compound E
Protocol: as §1, §2

SMILES: Cn1nnnc1SCC1=C(C(=O)O)N2C(=O)C(NC(=O)[C@H](NC(=O)NC(=N)N)c3ccccc3)C2SC1 (stereo partly drawn) [A, 7-[D-α-(3-Guanyl-1-ureido)phenylacetamido]-3-(1-methyl-1H-tetrazol-5yl-thiomethyl)-3-cephem-4-carboxylic acid]
- MIC (Aerobacter aerogenes): 0.7 µg/mL (≈ 1.28 µM)
- MIC (Escherichia coli): 2 µg/mL (≈ 3.66 µM)
- MIC (Klebsiella pneumoniae): 1 µg/mL (≈ 1.83 µM)
- MIC (Pseudomonas aeruginosa): 53.5 µg/mL (≈ 97.9 µM)
- MIC (Salmonella heidelberg): 0.8 µg/mL (≈ 1.46 µM)
- MIC (Serratia marcescens): 7 µg/mL (≈ 12.8 µM)
- MIC (Shigella sp.): 2 µg/mL (≈ 3.66 µM)
- MIC ([1]; N.S. = in the absence of serum): 1 µg/mL (≈ 1.83 µM)
- MIC ([1]; S = in the presence of serum): 9 µg/mL
- MIC ([2]; N.S. = in the absence of serum): 0.7 µg/mL (≈ 1.28 µM)
- MIC ([2]; S = in the presence of serum): 1 µg/mL
- MIC ([3]; N.S. = in the absence of serum): 0.6 µg/mL (≈ 1.1 µM)
- MIC ([3]; S = in the presence of serum): 1 µg/mL
- MIC ([4]; N.S. = in the absence of serum): 0.5 µg/mL (≈ 0.915 µM)
- MIC ([4]; S = in the presence of serum): < 0.1 µg/mL
- activity against gram-negative microorganisms compared with known compound E [5]: significantly greater activity against gram-negative microorganisms than the known compound, E

SMILES: CC(=O)OCC1=C(C(=O)O)N2C(=O)C(NC(=O)[C@H](NC(=O)NC(=N)N)c3ccccc3)C2SC1 (stereo partly drawn) [E, 7-[d-α-(3-guanyl-1-ureido)phenylacetamido]-3-acetoxymethyl-3-cephem-4-carboxylic acid, reference compound]
- MIC (Aerobacter aerogenes): 4.5 µg/mL (≈ 9.17 µM)
- MIC (Escherichia coli): 13.8 µg/mL (≈ 28.1 µM)
- MIC (Klebsiella pneumoniae): 21.5 µg/mL (≈ 43.8 µM)
- MIC (Pseudomonas aeruginosa): 100 µg/mL (≈ 204 µM)
- MIC (Salmonella heidelberg): 6 µg/mL (≈ 12.2 µM)
- MIC (Serratia marcescens): 31.5 µg/mL (≈ 64.2 µM)
- MIC (Shigella sp.): 16.3 µg/mL (≈ 33.2 µM)
- MIC ([1]; N.S. = in the absence of serum): 0.7 µg/mL (≈ 1.43 µM)
- MIC ([1]; S = in the presence of serum): 1 µg/mL
- MIC ([2]; N.S. = in the absence of serum): 0.5 µg/mL (≈ 1.02 µM)
- MIC ([2]; S = in the presence of serum): 1 µg/mL
- MIC ([3]; N.S. = in the absence of serum): 0.6 µg/mL (≈ 1.22 µM)
- MIC ([3]; S = in the presence of serum): 1 µg/mL
- MIC ([4]; N.S. = in the absence of serum): 0.6 µg/mL (≈ 1.22 µM)
- MIC ([4]; S = in the presence of serum): 1 µg/mL

SMILES: Cn1nnnc1SCC1=C(C(=O)O)N2C(=O)C(NC(=O)[C@H](NC(=O)NC(=N)N)c3ccc(O)cc3)C2SC1 (stereo partly drawn) [C, 7-[d-α-(3-guanyl-1-ureido)-4-hydroxyphenylacetamido]-3-(1-methyl-1H-tetrazol-5-yl-thiomethyl)-3-cephem-4-carboxylic acid]
- MIC (Aerobacter aerogenes): 0.1 µg/mL (≈ 0.178 µM)
- MIC (Escherichia coli): 0.7 µg/mL (≈ 1.24 µM)
- MIC (Klebsiella pneumoniae): 1.2 µg/mL (≈ 2.13 µM)
- MIC (Pseudomonas aeruginosa): 23 µg/mL (≈ 40.9 µM)
- MIC (Salmonella heidelberg): 0.2 µg/mL (≈ 0.355 µM)
- MIC (Serratia marcescens): 21 µg/mL (≈ 37.3 µM)
- MIC (Shigella sp.): 0.7 µg/mL (≈ 1.24 µM)
- MIC ([1]; N.S. = in the absence of serum): 1 µg/mL (≈ 1.78 µM)
- MIC ([1]; S = in the presence of serum): 10 µg/mL
- MIC ([2]; N.S. = in the absence of serum): < 0.1 µg/mL
- MIC ([2]; S = in the presence of serum): 10 µg/mL
- MIC ([3]; N.S. = in the absence of serum): < 0.1 µg/mL
- MIC ([3]; S = in the presence of serum): 1 µg/mL
- MIC ([4]; N.S. = in the absence of serum): < 0.1 µg/mL
- MIC ([4]; S = in the presence of serum): 0.6 µg/mL
- activity against gram-negative microorganisms compared with known compound E [5]: significantly greater activity against gram-negative microorganisms than the known compound, E

SMILES: Cc1nnc(SCC2=C(C(=O)O)N3C(=O)C(NC(=O)[C@H](NC(=O)NC(=N)N)c4ccccc4)C3SC2)s1 (stereo partly drawn) [B, 7-[d-α-(3-guanyl-1-ureido)phenylacetamido]-3-(5-methyl-1,3,4-thiadiazol-2-yl-thiomethyl)-3-cephem-4-carboxylid acid]
- MIC (Aerobacter aerogenes): 1 µg/mL (≈ 1.78 µM)
- MIC (Escherichia coli): 8.7 µg/mL (≈ 15.5 µM)
- MIC (Klebsiella pneumoniae): 1 µg/mL (≈ 1.78 µM)
- MIC (Pseudomonas aeruginosa): 104 µg/mL (≈ 185 µM)
- MIC (Salmonella heidelberg): 6 µg/mL (≈ 10.7 µM)
- MIC (Serratia marcescens): 14.3 µg/mL (≈ 25.4 µM)
- MIC (Shigella sp.): 5.5 µg/mL (≈ 9.78 µM)
- MIC ([1]; N.S. = in the absence of serum): 1 µg/mL (≈ 1.78 µM)
- MIC ([1]; S = in the presence of serum): > 20 µg/mL
- MIC ([2]; N.S. = in the absence of serum): 1 µg/mL (≈ 1.78 µM)
- MIC ([2]; S = in the presence of serum): > 20 µg/mL
- MIC ([3]; N.S. = in the absence of serum): 0.6 µg/mL (≈ 1.07 µM)
- MIC ([3]; S = in the presence of serum): 10 µg/mL
- MIC ([4]; N.S. = in the absence of serum): 0.6 µg/mL (≈ 1.07 µM)
- MIC ([4]; S = in the presence of serum): 10 µg/mL
- activity against gram-negative microorganisms compared with known compound E [5]: significantly greater activity against gram-negative microorganisms than the known compound, E

SMILES: Cc1nnc(SCC2=C(C(=O)O)N3C(=O)C(NC(=O)[C@H](NC(=O)NC(=N)N)c4ccc(O)cc4)C3SC2)s1 (stereo partly drawn) [D, 7-[d-α-(3-guanyl-1-ureido)-4-hydroxyphenylacetamido]-3-(5-methyl-1,3,4-thiadiazol-2-yl-thiomethyl)-3-cephem-4-carboxylic acid]
- MIC (Aerobacter aerogenes): 1 µg/mL (≈ 1.73 µM)
- MIC (Escherichia coli): 6 µg/mL (≈ 10.4 µM)
- MIC (Klebsiella pneumoniae): 1 µg/mL (≈ 1.73 µM)
- MIC (Pseudomonas aeruginosa): 50 µg/mL (≈ 86.4 µM)
- MIC (Salmonella heidelberg): 1 µg/mL (≈ 1.73 µM)
- MIC (Serratia marcescens): 50 µg/mL (≈ 86.4 µM)
- MIC (Shigella sp.): 4.5 µg/mL (≈ 7.78 µM)
- MIC ([1]; N.S. = in the absence of serum): 1 µg/mL (≈ 1.73 µM)
- MIC ([1]; S = in the presence of serum): 12 µg/mL
- MIC ([2]; N.S. = in the absence of serum): 1 µg/mL (≈ 1.73 µM)
- MIC ([2]; S = in the presence of serum): 6 µg/mL
- MIC ([3]; N.S. = in the absence of serum): 1 µg/mL (≈ 1.73 µM)
- MIC ([3]; S = in the presence of serum): 2 µg/mL
- MIC ([4]; N.S. = in the absence of serum): 1 µg/mL (≈ 1.73 µM)
- MIC ([4]; S = in the presence of serum): 1 µg/mL
- activity against gram-negative microorganisms compared with known compound E [5]: significantly greater activity against gram-negative microorganisms than the known compound, E
